Square brackets hold non-standard residues; d marks the D form. Peptide text beside a SMILES is read from it. Bip = N[C@@H](Cc1ccc(-c2ccccc2)cc1)C(=O)O; dPhe(4-I) = N[C@H](Cc1ccc(I)cc1)C(=O)O; 2Nal = N[C@@H](Cc1ccc2ccccc2c1)C(=O)O; d2Nal = N[C@H](Cc1ccc2ccccc2c1)C(=O)O; Bta = N[C@@H](Cc1csc2ccccc12)C(=O)O; Tic = O=C(O)[C@@H]1Cc2ccccc2CN1; Nle = CCCC[C@H](N)C(=O)O
Tests used:
mMC3R [1] = molecular target: T1, mMC3R (Mus musculus, UniProt P33033); conditions: Schild analysis; for mMC3R Antagonist pA2 ± SEM: Table 1, pA2 = -Log(Ki), Full Agonist = full dose-response, No Activity = no shift in EC50; for mMC3R pA2: Table 5
mMC3R [2] = molecular target: T1, mMC3R; assay: 125I-NDP-MSH competitive binding assay at mMC3R; design: expressed in transfected cells; conditions: for mMC3R (IC50) Fold Diff.: Table 3, vs Ac-His-DPhe-Arg-Trp-NH2, negative = more potent than control
Description: A typical experiment utilized a 12-well format. […] Pharm. Des.
The plates were incubated at 37° C. with 5% CO2 for 1 hour. Post incubation, the media was aspirated, each well was washed with 500 μL assay media, and cells were lysed with 500 μL of 0.1 M NaOH and 500 μL of 1% Triton x-100.
Following a 10-15 minute room temperature incubation, the cell lysate mixture was transferred to 12×75 mm polystyrene tubes and the radioactivity was quantified using a WIZARD^2 Automatic Gamma Counter (Perkin-Elmer). […] GraphPad, Inc), and dose-response curves in addition to the corresponding IC50 values were calculated by a non-linear regression method. Each reported value represents the mean and standard error of the mean (SEM) of, at least, two independent experiments each containing two experimental replicates.
Note each reported value represents the mean and standard error of the mean (SEM) of at least two independent experiments containing two experimental replicates.

mMC4R [3] = molecular target: T2, mMC4R (Mus musculus, UniProt P56450); assay: AlphaScreen cAMP agonist assay at mMC4R; conditions: for activation at 100 µM: read-out: mMC4R Agonist, percent of the NDP-MSH maximal positive control
mMC4R [4] = molecular target: T2, mMC4R; assay: 125I-NDP-MSH competitive binding assay at mMC4R; conditions: Table 3; vs Ac-His-DPhe-Arg-Trp-NH2; negative = more potent than control
mMC3R [5] = molecular target: T1, mMC3R; assay: AlphaScreen cAMP agonist assay at mMC3R; conditions: for mMC3R Agonist, percent of the NDP-MSH maximal positive control: Table 1, @ 100 μM
mMC1R = mMC1R (Mus musculus, UniProt Q01727); assay: AlphaScreen cAMP agonist assay at mMC1R; conditions: for mMC1R percent of the NDP-MSH maximal positive control: Table 2, @ 100 μM
mMC5R = mMC5R (Mus musculus, UniProt P41149); assay: AlphaScreen cAMP agonist assay at mMC5R; conditions: for activation at 100 µM: read-out: percent of the NDP-MSH maximal positive control, Table 2
mMC4R [6] = molecular target: T2, mMC4R; conditions: for mMC4R Antagonist pA2 ± SEM: Table 1, pA2 = -Log(Ki); for mMC4R Antagonist pA2 ± SEM / mMC4R pA2: Schild analysis; for mMC4R pA2: Table 5

Sequence of mMC1R (Q01727 whole entry): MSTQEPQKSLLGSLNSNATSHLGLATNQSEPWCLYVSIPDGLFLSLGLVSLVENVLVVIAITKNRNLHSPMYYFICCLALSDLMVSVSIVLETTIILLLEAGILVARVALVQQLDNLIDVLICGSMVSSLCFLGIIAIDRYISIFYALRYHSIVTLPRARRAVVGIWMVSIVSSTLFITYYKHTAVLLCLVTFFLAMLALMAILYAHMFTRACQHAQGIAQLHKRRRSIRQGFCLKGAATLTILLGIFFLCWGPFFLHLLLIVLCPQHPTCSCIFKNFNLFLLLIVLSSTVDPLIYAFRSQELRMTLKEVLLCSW
Sequence of mMC5R (P41149 whole entry): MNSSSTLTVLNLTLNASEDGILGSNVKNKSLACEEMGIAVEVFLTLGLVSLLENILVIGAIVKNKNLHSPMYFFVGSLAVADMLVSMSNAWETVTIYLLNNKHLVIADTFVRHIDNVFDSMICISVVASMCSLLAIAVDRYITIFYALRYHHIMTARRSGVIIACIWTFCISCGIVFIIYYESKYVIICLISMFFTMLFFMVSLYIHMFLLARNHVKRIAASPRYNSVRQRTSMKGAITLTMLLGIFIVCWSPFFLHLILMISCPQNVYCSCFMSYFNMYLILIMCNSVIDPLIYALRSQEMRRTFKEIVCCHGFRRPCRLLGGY
T2 sequence (P56450 whole entry): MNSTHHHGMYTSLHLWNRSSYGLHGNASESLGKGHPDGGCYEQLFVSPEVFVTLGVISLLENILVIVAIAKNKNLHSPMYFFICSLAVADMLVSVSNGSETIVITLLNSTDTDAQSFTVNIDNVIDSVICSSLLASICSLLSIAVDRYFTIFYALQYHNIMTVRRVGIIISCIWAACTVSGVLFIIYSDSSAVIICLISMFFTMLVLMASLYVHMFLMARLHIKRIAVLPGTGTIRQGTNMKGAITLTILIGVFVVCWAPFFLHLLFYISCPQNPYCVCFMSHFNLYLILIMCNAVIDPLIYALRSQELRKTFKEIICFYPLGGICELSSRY
T1 sequence (P33033 whole entry): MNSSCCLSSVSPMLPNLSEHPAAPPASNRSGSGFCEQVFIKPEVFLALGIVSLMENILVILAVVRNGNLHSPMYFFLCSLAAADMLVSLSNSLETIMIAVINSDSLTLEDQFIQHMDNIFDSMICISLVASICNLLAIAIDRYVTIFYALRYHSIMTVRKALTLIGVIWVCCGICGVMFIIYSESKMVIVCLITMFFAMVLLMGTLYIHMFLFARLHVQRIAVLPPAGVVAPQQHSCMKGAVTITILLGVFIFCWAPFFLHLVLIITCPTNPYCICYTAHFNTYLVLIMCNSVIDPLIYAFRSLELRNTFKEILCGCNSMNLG

CC(=O)N[C@@H](Cc1c[nH]cn1)C(=O)N[C@@H](CCCNC(=N)N)C(=O)N[C@H](Cc1ccc(I)cc1)C(=O)N[C@@H](Cc1csc2ccccc12)C(N)=O [SKY4-48-11, Ac-His-Arg-(pI)DPhe-3Bal-NH2] (Ac-HR[dPhe(4-I)][Bta]-NH2)
mMC3R Antagonist pA2 ± SEM (mMC3R [1]): Full Agonist | mMC3R (IC50) Fold Diff. (mMC3R [2]): -15 | activation at 100 µM (mMC4R [3]): 47% | mMC4R (IC50) Fold Diff. (mMC4R [4]): 2

CCCC[C@H](NC(=O)[C@H](CO)NC(=O)[C@H](Cc1ccc(O)cc1)NC(=O)[C@H](CO)NC(C)=O)C(=O)N[C@@H](CCC(=O)O)C(=O)N[C@@H](Cc1c[nH]cn1)C(=O)N[C@@H](CCCNC(=N)N)C(=O)N[C@H](Cc1ccccc1)C(=O)N[C@@H](Cc1c[nH]c2ccccc12)C(=O)NCC(=O)N[C@@H](CCCCN)C(=O)N1CCC[C@H]1C(=O)N[C@H](C(N)=O)C(C)C [SKY2-125-3, Ac-Ser-Tyr-Ser-Nle-Glu-His-Arg-DPhe-Trp-Gly-Lys-Pro-Val-NH2] (Ac-SYS[Nle]EHR[dF]WGKPV-NH2)
EC50 (mMC3R [5]): 1.8 µM | EC50 (mMC4R [3]): 9.5 µM | EC50 (mMC1R): 0.38 ± 0.07 µM | EC50 (mMC5R): 1.6 µM

CC(=O)N[C@@H](CCCNC(=N)N)C(=O)N[C@@H](CCCNC(=N)N)C(=O)N[C@H](Cc1ccc(I)cc1)C(=O)N[C@@H](Cc1ccc(-c2ccccc2)cc1)C(N)=O [SKY4-48-2, Ac-Arg-Arg-(pI)DPhe-Bip-NH2]
antagonist pA2 at the mMC4R (mMC4R [6]): 5.8 | mMC3R Agonist, percent of the NDP-MSH maximal positive control (mMC3R [5]): 45% @ 100 μM | activation at 100 µM (mMC4R [3]): 32% | mMC1R percent of the NDP-MSH maximal positive control (mMC1R): 44% @ 100 μM

CC(=O)N[C@@H](Cc1ccc2ccccc2c1)C(=O)N[C@@H](CCCNC(=N)N)C(=O)N[C@H](Cc1ccc(I)cc1)C(=O)N[C@H](Cc1ccc2ccccc2c1)C(N)=O [SKY4-48-48, Ac-Nal(2′)-Arg-(pI)DPhe-DNal(2′)-NH2] (Ac-[2Nal]R[dPhe(4-I)][d2Nal]-NH2)
mMC3R Antagonist pA2 ± SEM (mMC3R [1]): No Activity | mMC4R Antagonist pA2 ± SEM (mMC4R [6]): No Activity | mMC3R Agonist, percent of the NDP-MSH maximal positive control (mMC3R [5]): 31% @ 100 μM | mMC1R percent of the NDP-MSH maximal positive control (mMC1R): 53% @ 100 μM | activation at 100 µM (mMC5R): 40%

CC(=O)N1Cc2ccccc2C[C@H]1C(=O)N[C@@H](CCCNC(=N)N)C(=O)N[C@H](Cc1ccc(I)cc1)C(=O)N[C@@H](Cc1ccc2ccccc2c1)C(N)=O [SKY4-48-38, Ac-Tic-Arg-(pI)DPhe-Nal(2′)-NH2] (Ac-[Tic]R[dPhe(4-I)][2Nal]-NH2)
mMC3R Antagonist pA2 ± SEM (mMC3R [1]): No Activity | mMC1R percent of the NDP-MSH maximal positive control (mMC1R): 66% @ 100 μM | activation at 100 µM (mMC5R): 48%

CC(=O)N[C@@H](Cc1ccccc1)C(=O)N[C@@H](CCCNC(=N)N)C(=O)N[C@H](Cc1ccc(I)cc1)C(=O)N[C@@H](Cc1csc2ccccc12)C(N)=O [SKY4-48-15, Ac-Phe-Arg-(pI)DPhe-3Bal-NH2] (Ac-FR[dPhe(4-I)][Bta]-NH2)
mMC3R Antagonist pA2 ± SEM (mMC3R [1]): Full Agonist | fold improvement of binding IC50 at the mMC3R compared to SKY4-48-1 (mMC3R [2]): 9 fold | mMC3R (IC50) Fold Diff. (mMC3R [2]): -9 | mMC4R (IC50) Fold Diff. (mMC4R [4]): 7

CC(=O)N[C@@H](CCCNC(=N)N)C(=O)N[C@@H](CCCNC(=N)N)C(=O)N[C@H](Cc1ccc(I)cc1)C(=O)N[C@@H](Cc1ccccc1)C(N)=O [SKY4-48-26, Ac-Arg-Arg-(pI)DPhe-Phe-NH2]
mMC3R Antagonist pA2 ± SEM (mMC3R [1]): Full Agonist | mMC3R (IC50) Fold Diff. (mMC3R [2]): -8 | mMC4R (IC50) Fold Diff. (mMC4R [4]): 4

CC(=O)N[C@H](Cc1c[nH]c2ccccc12)C(=O)N[C@H](CCCNC(=N)N)C(=O)N[C@@H](Cc1ccccc1)C(=O)N[C@H](Cc1c[nH]cn1)C(N)=O [SKY5-121, Ac-DTrp-DArg-Phe-DHis-NH2] (Ac-[dW][dR]F[dH]-NH2)
mMC3R pA2 (mMC3R [1]): pA2 = No Activity | mMC4R pA2 (mMC4R [6]): pA2 = No Activity | EC50 (mMC3R [5]): > 100 µM | EC50 (mMC4R [3]): > 100 µM | EC50 (mMC1R): > 100 µM | mMC5R percent of the NDP-MSH maximal positive control (mMC5R; Table 5, @ 100 μM): 29% @ 100 μM

CC(=O)N[C@@H](Cc1ccccc1)C(=O)N[C@@H](CCCNC(=N)N)C(=O)N[C@H](Cc1ccc(I)cc1)C(=O)N[C@@H](Cc1ccc(-c2ccccc2)cc1)C(N)=O [SKY4-48-7, Ac-Phe-Arg-(pI)DPhe-Bip-NH2] (Ac-FR[dPhe(4-I)][Bip]-NH2)
mMC3R Antagonist pA2 ± SEM (mMC3R [1]): No Activity | mMC4R Antagonist pA2 ± SEM (mMC4R [6]): No Activity | mMC3R Agonist, percent of the NDP-MSH maximal positive control (mMC3R [5]): 30% @ 100 μM | mMC1R percent of the NDP-MSH maximal positive control (mMC1R): 67% @ 100 μM

Ac-SYSMEHRFWGKPV-NH2 [SKY2-125-5]
EC50 (mMC3R [5]): 5.8 µM | fold decreased potency at the mMC3R relative to α-MSH (mMC3R [5]; Arg-Phe reverse analog vs parent): 45,000 fold | EC50 (mMC4R [3]): 44 µM | EC50 (mMC1R): 3 µM | EC50 (mMC5R): 2.6 µM

CC(=O)N[C@@H](Cc1c[nH]cn1)C(=O)N[C@@H](CCCNC(=N)N)C(=O)N[C@H](Cc1ccccc1)C(=O)N[C@@H](Cc1c[nH]c2ccccc12)C(N)=O [SKY5-146-6, Ac-His-Arg-DPhe-Trp-NH2] (Ac-HR[dF]W-NH2)
mMC3R pA2 (mMC3R [1]): Full Agonist | mMC4R pA2 (mMC4R [6]): pA2 = No Activity | EC50 (mMC3R [5]): 21 µM | agonist activity at the mMC3R in words (mMC3R [5]; up to 100 μM): micromolar agonists | EC50 (mMC4R [3]): > 100 µM | agonist activity at the mMC4R in words (mMC4R [3]; up to 100 μM): no agonist activity | EC50 (mMC1R): 1.3 µM | agonist / inverse agonist activity at the mMC1R in words (mMC1R; up to 100 μM): micromolar agonists | EC50 (mMC5R): 21 µM | agonist activity at the mMC5R in words (mMC5R; up to 100 μM): micromolar agonists

CC(=O)N[C@@H](Cc1ccc(-c2ccccc2)cc1)C(=O)N[C@@H](CCCNC(=N)N)C(=O)N[C@H](Cc1ccc(I)cc1)C(=O)N[C@@H](Cc1ccc2ccccc2c1)C(N)=O [SKY4-48-36, Ac-Bip-Arg-(pI)DPhe-Nal(2′)-NH2] (Ac-[Bip]R[dPhe(4-I)][2Nal]-NH2)
mMC3R Antagonist pA2 ± SEM (mMC3R [1]): No Activity | mMC4R Antagonist pA2 ± SEM (mMC4R [6]): No Activity | mMC1R percent of the NDP-MSH maximal positive control (mMC1R): 23% @ 100 μM | activation at 100 µM (mMC5R): 21%

CC(=O)N[C@@H](Cc1ccccc1)C(=O)N[C@@H](CCCNC(=N)N)C(=O)N[C@H](Cc1ccc(I)cc1)C(=O)N1Cc2ccccc2C[C@H]1C(N)=O [SKY4-48-23, Ac-Phe-Arg-(pI)DPhe-Tic-NH2] (Ac-FR[dPhe(4-I)][Tic]-NH2)
mMC3R Antagonist pA2 ± SEM (mMC3R [1]): Full Agonist | mMC3R (IC50) Fold Diff. (mMC3R [2]): -20 | mMC4R (IC50) Fold Diff. (mMC4R [4]): 1

CC(=O)N1Cc2ccccc2C[C@H]1C(=O)N[C@@H](CCCNC(=N)N)C(=O)N[C@H](Cc1ccc(I)cc1)C(=O)N[C@@H](Cc1csc2ccccc12)C(N)=O [SKY4-48-14, Ac-Tic-Arg-(pI)DPhe-3Bal-NH2] (Ac-[Tic]R[dPhe(4-I)][Bta]-NH2)
mMC3R Antagonist pA2 ± SEM (mMC3R [1]): Full Agonist | mMC1R percent of the NDP-MSH maximal positive control (mMC1R): 38% @ 100 μM

Ac-3Bal-Arg-(pI)DPhe-DNal(2′)-NH2 (Ac-[Bta]R[dPhe(4-I)][d2Nal]-NH2) [SKY4-48-45]
mMC3R Antagonist pA2 ± SEM (mMC3R [1]): No Activity | mMC4R Antagonist pA2 ± SEM (mMC4R [6]): No Activity | mMC3R Agonist, percent of the NDP-MSH maximal positive control (mMC3R [5]): 34% @ 100 μM | mMC4R Agonist, percent of the NDP-MSH maximal positive control (mMC4R [3]; Table 1, @ 100 μM): 38% @ 100 μM | mMC1R percent of the NDP-MSH maximal positive control (mMC1R): 36% @ 100 μM | percent of the NDP-MSH maximal positive control, Table 2 (mMC5R; Table 2, @ 100 μM): 41% @ 100 μM

CC(=O)N1Cc2ccccc2C[C@H]1C(=O)N[C@@H](CCCNC(=N)N)C(=O)N[C@H](Cc1ccc(I)cc1)C(=O)N[C@@H](Cc1ccc(-c2ccccc2)cc1)C(N)=O [SKY5-146-1, Ac-Tic-Arg-(pI)DPhe-Bip-NH2] (Ac-[Tic]R[dPhe(4-I)][Bip]-NH2)
mMC3R Antagonist pA2 ± SEM (mMC3R [1]): No Activity | mMC4R Antagonist pA2 ± SEM (mMC4R [6]): No Activity | mMC1R percent of the NDP-MSH maximal positive control (mMC1R): 39% @ 100 μM

From US10899793B2, “Melanocortin ligands and methods of use thereof” (priority 2016, dated 2021)
